Data from BigSolDB 2.1.

## Cc1cccc([N+](=O)[O-])c1N
In 1,4-dioxane, 283.15 K
  solubility (mole fraction): 0.18
In 1,4-dioxane, 285.65 K
  solubility (mole fraction): 0.19
In 1,4-dioxane, 288.15 K
  solubility (mole fraction): 0.201
In 1,4-dioxane, 290.65 K
  solubility (mole fraction): 0.211
In 1,4-dioxane, 293.15 K
  solubility (mole fraction): 0.223
In 1,4-dioxane, 295.65 K
  solubility (mole fraction): 0.236
In 1,4-dioxane, 298.15 K
  solubility (mole fraction): 0.249
In 1,4-dioxane, 300.65 K
  solubility (mole fraction): 0.262
In 1,4-dioxane, 303.15 K
  solubility (mole fraction): 0.277
In 1,4-dioxane, 305.65 K
  solubility (mole fraction): 0.291
In 1,4-dioxane, 308.15 K
  solubility (mole fraction): 0.306
In 1,4-dioxane, 310.65 K
  solubility (mole fraction): 0.323
In 1,4-dioxane, 313.15 K
  solubility (mole fraction): 0.339
In acetone, 278.15 K
  solubility (mole fraction): 0.113
In acetone, 280.65 K
  solubility (mole fraction): 0.122
In acetone, 283.15 K
  solubility (mole fraction): 0.132
In acetone, 285.65 K
  solubility (mole fraction): 0.142
In acetone, 288.15 K
  solubility (mole fraction): 0.153
In acetone, 290.65 K
  solubility (mole fraction): 0.165
In acetone, 293.15 K
  solubility (mole fraction): 0.177
In acetone, 295.65 K
  solubility (mole fraction): 0.19
In acetone, 298.15 K
  solubility (mole fraction): 0.203
In acetone, 300.65 K
  solubility (mole fraction): 0.217
In acetone, 303.15 K
  solubility (mole fraction): 0.233
In acetone, 305.65 K
  solubility (mole fraction): 0.249
In acetone, 308.15 K
  solubility (mole fraction): 0.265
In acetone, 310.65 K
  solubility (mole fraction): 0.283
In acetone, 313.15 K
  solubility (mole fraction): 0.301
In acetonitrile, 278.15 K
  solubility (mole fraction): 0.0418
In acetonitrile, 280.65 K
  solubility (mole fraction): 0.0466
In acetonitrile, 283.15 K
  solubility (mole fraction): 0.0529
In acetonitrile, 285.65 K
  solubility (mole fraction): 0.0589
In acetonitrile, 288.15 K
  solubility (mole fraction): 0.067
In acetonitrile, 290.65 K
  solubility (mole fraction): 0.0753
In acetonitrile, 293.15 K
  solubility (mole fraction): 0.0844
In acetonitrile, 295.65 K
  solubility (mole fraction): 0.0954
In acetonitrile, 298.15 K
  solubility (mole fraction): 0.106
In acetonitrile, 300.65 K
  solubility (mole fraction): 0.119
In acetonitrile, 303.15 K
  solubility (mole fraction): 0.133
In acetonitrile, 305.65 K
  solubility (mole fraction): 0.148
In acetonitrile, 308.15 K
  solubility (mole fraction): 0.165
In acetonitrile, 310.65 K
  solubility (mole fraction): 0.183
In acetonitrile, 313.15 K
  solubility (mole fraction): 0.203
In cyclohexane, 283.15 K
  solubility (mole fraction): 0.00103
In cyclohexane, 285.65 K
  solubility (mole fraction): 0.00118
In cyclohexane, 288.15 K
  solubility (mole fraction): 0.00136
In cyclohexane, 290.65 K
  solubility (mole fraction): 0.00158
In cyclohexane, 293.15 K
  solubility (mole fraction): 0.00181
In cyclohexane, 295.65 K
  solubility (mole fraction): 0.00211
In cyclohexane, 298.15 K
  solubility (mole fraction): 0.00242
In cyclohexane, 300.65 K
  solubility (mole fraction): 0.00279
In cyclohexane, 303.15 K
  solubility (mole fraction): 0.00318
In cyclohexane, 305.65 K
  solubility (mole fraction): 0.00369
In cyclohexane, 308.15 K
  solubility (mole fraction): 0.00424
In cyclohexane, 310.65 K
  solubility (mole fraction): 0.00489
In cyclohexane, 313.15 K
  solubility (mole fraction): 0.00562
In ethanol, 278.15 K
  solubility (mole fraction): 0.0102
In ethanol, 280.65 K
  solubility (mole fraction): 0.0112
In ethanol, 283.15 K
  solubility (mole fraction): 0.0125
In ethanol, 285.65 K
  solubility (mole fraction): 0.0139
In ethanol, 288.15 K
  solubility (mole fraction): 0.0154
In ethanol, 290.65 K
  solubility (mole fraction): 0.017
In ethanol, 293.15 K
  solubility (mole fraction): 0.019
In ethanol, 295.65 K
  solubility (mole fraction): 0.021
In ethanol, 298.15 K
  solubility (mole fraction): 0.0233
In ethanol, 300.65 K
  solubility (mole fraction): 0.0256
In ethanol, 303.15 K
  solubility (mole fraction): 0.0284
In ethanol, 305.65 K
  solubility (mole fraction): 0.0314
In ethanol, 308.15 K
  solubility (mole fraction): 0.0346
In ethanol, 310.65 K
  solubility (mole fraction): 0.0381
In ethanol, 313.15 K
  solubility (mole fraction): 0.042
In ethyl acetate, 278.15 K
  solubility (mole fraction): 0.0841
In ethyl acetate, 280.65 K
  solubility (mole fraction): 0.0924
In ethyl acetate, 283.15 K
  solubility (mole fraction): 0.101
In ethyl acetate, 285.65 K
  solubility (mole fraction): 0.11
In ethyl acetate, 288.15 K
  solubility (mole fraction): 0.121
In ethyl acetate, 290.65 K
  solubility (mole fraction): 0.131
In ethyl acetate, 293.15 K
  solubility (mole fraction): 0.142
In ethyl acetate, 295.65 K
  solubility (mole fraction): 0.155
In ethyl acetate, 298.15 K
  solubility (mole fraction): 0.168
In ethyl acetate, 300.65 K
  solubility (mole fraction): 0.182
In ethyl acetate, 303.15 K
  solubility (mole fraction): 0.196
In ethyl acetate, 305.65 K
  solubility (mole fraction): 0.212
In ethyl acetate, 308.15 K
  solubility (mole fraction): 0.228
In ethyl acetate, 310.65 K
  solubility (mole fraction): 0.246
In ethyl acetate, 313.15 K
  solubility (mole fraction): 0.265
In isopropanol, 278.15 K
  solubility (mole fraction): 0.0086
In isopropanol, 280.65 K
  solubility (mole fraction): 0.00945
In isopropanol, 283.15 K
  solubility (mole fraction): 0.0105
In isopropanol, 285.65 K
  solubility (mole fraction): 0.0119
In isopropanol, 288.15 K
  solubility (mole fraction): 0.0133
In isopropanol, 290.65 K
  solubility (mole fraction): 0.0147
In isopropanol, 293.15 K
  solubility (mole fraction): 0.0163
In isopropanol, 295.65 K
  solubility (mole fraction): 0.0183
In isopropanol, 298.15 K
  solubility (mole fraction): 0.0202
In isopropanol, 300.65 K
  solubility (mole fraction): 0.0225
In isopropanol, 303.15 K
  solubility (mole fraction): 0.0249
In isopropanol, 305.65 K
  solubility (mole fraction): 0.0277
In isopropanol, 308.15 K
  solubility (mole fraction): 0.0306
In isopropanol, 310.65 K
  solubility (mole fraction): 0.0339
In isopropanol, 313.15 K
  solubility (mole fraction): 0.0376
In methanol, 278.15 K
  solubility (mole fraction): 0.00739
In methanol, 280.65 K
  solubility (mole fraction): 0.00829
In methanol, 283.15 K
  solubility (mole fraction): 0.00916
In methanol, 285.65 K
  solubility (mole fraction): 0.0102
In methanol, 288.15 K
  solubility (mole fraction): 0.0113
In methanol, 290.65 K
  solubility (mole fraction): 0.0124
In methanol, 293.15 K
  solubility (mole fraction): 0.014
In methanol, 295.65 K
  solubility (mole fraction): 0.0155
In methanol, 298.15 K
  solubility (mole fraction): 0.0172
In methanol, 300.65 K
  solubility (mole fraction): 0.0192
In methanol, 303.15 K
  solubility (mole fraction): 0.0212
In methanol, 305.65 K
  solubility (mole fraction): 0.0234
In methanol, 308.15 K
  solubility (mole fraction): 0.0261
In methanol, 310.65 K
  solubility (mole fraction): 0.0288
In methanol, 313.15 K
  solubility (mole fraction): 0.032
In n-propanol, 278.15 K
  solubility (mole fraction): 0.0108
In n-propanol, 280.65 K
  solubility (mole fraction): 0.012
In n-propanol, 283.15 K
  solubility (mole fraction): 0.0133
In n-propanol, 285.65 K
  solubility (mole fraction): 0.0149
In n-propanol, 288.15 K
  solubility (mole fraction): 0.0165
In n-propanol, 290.65 K
  solubility (mole fraction): 0.0183
In n-propanol, 293.15 K
  solubility (mole fraction): 0.0203
In n-propanol, 295.65 K
  solubility (mole fraction): 0.0225
In n-propanol, 298.15 K
  solubility (mole fraction): 0.0248
In n-propanol, 300.65 K
  solubility (mole fraction): 0.0275
In n-propanol, 303.15 K
  solubility (mole fraction): 0.0305
In n-propanol, 305.65 K
  solubility (mole fraction): 0.0336
In n-propanol, 308.15 K
  solubility (mole fraction): 0.0371
In n-propanol, 310.65 K
  solubility (mole fraction): 0.041
In n-propanol, 313.15 K
  solubility (mole fraction): 0.0451
In toluene, 278.15 K
  solubility (mole fraction): 0.0237
In toluene, 280.65 K
  solubility (mole fraction): 0.0267
In toluene, 283.15 K
  solubility (mole fraction): 0.0301
In toluene, 285.65 K
  solubility (mole fraction): 0.0336
In toluene, 288.15 K
  solubility (mole fraction): 0.0375
In toluene, 290.65 K
  solubility (mole fraction): 0.0417
In toluene, 293.15 K
  solubility (mole fraction): 0.0469
In toluene, 295.65 K
  solubility (mole fraction): 0.0521
In toluene, 298.15 K
  solubility (mole fraction): 0.0581
In toluene, 300.65 K
  solubility (mole fraction): 0.0647
In toluene, 303.15 K
  solubility (mole fraction): 0.0719
In toluene, 305.65 K
  solubility (mole fraction): 0.0804
In toluene, 308.15 K
  solubility (mole fraction): 0.0893
In toluene, 310.65 K
  solubility (mole fraction): 0.0993
In toluene, 313.15 K
  solubility (mole fraction): 0.11
